Test results as given in PubChem BioAssay AID1963985 (Molecular Pharmacology Branch, DTP, NCI, 2024).
Several values for one entry are separate records, joined by “and”; a condition that tells them apart may be missing. Equal entries are not always repeated.

System: 252836-082-R-J2-PDC tumor spheroids, viability
Assay: Anticancer human tumor 252836-082-R-J2-PDC patient-derived head and neck squamous cell carcinoma cell line growth inhibition [PI3K]
Conditions: spheroids with HUVEC and MSC; for viability, T/C: stronger effect = lower value
From the text: Combinatorial screen of targeted agents with the PI3K inhibitors inavolisib, alpelisib, duvelisib, and copanlisib in multi-cell type tumor spheroids
A high-throughput screen of multi-cell type tumor spheroids was designed to identify active combinations of targeted small molecules and PI3K pathway inhibitors. Complex spheroids include a stromal component modeled by human endothelial cells (HUVEC) and fibroblasts modeled by human mesenchymal stem cells (MSCs). The concentration ranges selected for each drug and investigational agent were based upon clinically achievable concentrations if the clinical Cmax of the agent was known.
Compounds. The drugs and investigational agents: inavolisib (NSC800729), alpelisib (NSC765974), duvelisib (NSC772469), copanlisib (NSC816437), ipatasertib (NSC767898), afuresertib (NSC778305), talazoparib (NSC767125), sapanisertib (NSC764658), selumetinib (NSC741078), tovorafenib (DAY101, NSC766906), vemurafenib (NSC761431), ravoxertinib (NSC781343), sotorasib (NSC818433), MRTX1133 (NSC 836407), abemaciclib (NSC 768073), palbociclib (NSC758247), venetoclax (NSC 766270), SY5609 (NSC837396), enzalutamide (NSC755605), and darolutamide (NSC825331), were obtained from the National Cancer Institute (NCI) Developmental Therapeutics Program Chemical Repository. The FDA-approved anticancer drug set is available from the NCI Developmental Therapeutics Program. […] The stock solutions were prepared in dimethyl sulfoxide (DMSO, Sigma-Aldrich, St. Louis, MO, cat. D2650) at 800-fold the tested concentration and stored at -70 degrees C prior to their use. All drugs and investigational agents were tested over a range starting from a high concentration at or near the clinical Cmax and decreasing in half-log increments. If the clinical Cmax for an agent had not been determined, the highest concentration tested was 10 microM.
Cell Culture. All cells were maintained in an incubator at 37 degrees C and 5% CO2 with 95% humidity. The PDC lines were cultured according to standard operating procedures established by the NCI PDMR (https://pdmr.cancer.gov/sops/default.htm). All PDCs were thawed and cultured in Matrigel-coated flasks prepared with a working solution of 1X Ham's F-12 nutrient mix, without supplementation (Invitrogen, Waltham, MA, cat. 11765054), 100 U/mL penicillin-streptomycin (Invitrogen, cat. 15140122), and 2.5% Matrigel (Corning Inc., Corning, NY, cat. 354248) for the first three passages. The 354836-022-R-J1-PDC, 475296-252-R-J1-PDC, and 997726-040-R-J2-PDC lines were cultured in 6A media, which includes advanced DMEM/F-12 (Thermo Fisher Scientific, cat. 12634028), 10 mM HEPES (Thermo Fisher Scientific, cat. 15630080), 1X GlutaMAX supplement (Thermo Fisher Scientific, cat. 35050061), 0.1 mg/mL primocin (InvivoGen, San Diego, CA, cat. ant-pm-2), 10% defined fetal bovine serum, heat inactivated (HyClone Laboratories Inc., Logan, UT, cat. SH30070.03HI), 50% L-WRN conditioned media (ATCC, cat. CRL-3276), 1.25 mM N-Acetyl-L-cysteine (Sigma-Aldrich, cat. A9165), 10 mM nicotinamide (Sigma-Aldrich, cat. N0636), 1X B-27 supplement (Thermo Fisher Scientific, cat. 17504044), 1X N-2 supplement (Thermo Fisher Scientific, cat. 17502048), and 10 microM Y-27632 dihydrochloride (Tocris Bioscience, Bristol, United Kingdom, cat. 1254). The 624824-186-R-J2-PDC line was cultured in 6C/Colon 1B media, which includes all 6A media components plus 50 ng/mL human EGF recombinant protein (Thermo Fisher Scientific, cat. PHG0311). […]

[1] = compound alone, run of 06/13/2023
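Note: spheroids exposed to agents for seven days before readout.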
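Throughout, for viability, T/C: percent of vehicle DMSO control viability so 100% = untreated growth.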

| IC50 (curve of compound) | SMILES | viability, T/C (compound 0.0316 µM) | viability, T/C (compound 0.1 µM) | viability, T/C (compound 10 µM) | viability, T/C (compound 0.00316 µM) | viability, T/C (compound 0.01 µM) | viability, T/C (compound 0.316 µM) | viability, T/C (compound 1 µM) | viability, T/C (compound 3.16 µM) | other results |
| --- | --- | --- | --- | --- | --- | --- | --- | --- | --- | --- |
| > 10 µM | C=CC(=O)N1CCN(c2nc(=O)n(-c3c(C)ccnc3C(C)C)c3nc(-c4c(O)cccc4F)c(F)cc23)C(C)C1 (configuration not stated) | 98% [middle of 4 runs] | 95.6% [middle of 4 runs] | 99.2% [middle of 4 runs] |  |  |  |  |  |  |
| > 0.1 µM | CC(=O)c1c(C)c2cnc(Nc3ccc(N4CCNCC4)cn3)nc2n(C2CCCC2)c1=O | 87.3% [middle of 4 runs] | 95.2% [middle of 4 runs] |  | 93.9% and 100% (2×) and 83.1% | 97.5% [middle of 4 runs] |  |  |  | viability, T/C (compound 0.000316 µM): 95.4% [middle of 4 runs]; viability, T/C (compound 0.001 µM): 95.7% [middle of 4 runs] |
| 850 nM [middle of 4 runs] | CC(C)NCC(C(=O)N1CCN(c2ncnc3c2C(C)CC3O)CC1)c1ccc(Cl)cc1 (configuration not stated) | 84.2% [middle of 4 runs] | 96.8% [middle of 4 runs] | 19.7% [middle of 4 runs] |  |  | 87.8% (2×) and 61.1% and 70.6% | 45.1% [middle of 4 runs] | 31.7% [middle of 4 runs] |  |
| 36.6 nM [middle of 4 runs] | CC(C)n1nc(-c2ccc3oc(N)nc3c2)c2c(N)ncnc21 | 53.5% [middle of 4 runs] | 23% [middle of 4 runs] |  | 87.4% [middle of 4 runs] | 80.9% [middle of 4 runs] |  |  |  | viability, T/C (compound 0.000316 µM): 93.7% [middle of 4 runs]; viability, T/C (compound 0.001 µM): 91.8% [middle of 4 runs] |
| > 10 µM | CC(Cn1ccc(-c2ccc(C#N)c(Cl)c2)n1)NC(=O)c1cc(C(C)O)[nH]n1 (configuration not stated) | 93.6% [middle of 4 runs] | 88.4% [middle of 4 runs] | 91.9% [middle of 4 runs] |  |  | 98.8% [middle of 4 runs] | 97.2% [middle of 4 runs] | 92.5% [middle of 4 runs] |  |
|  | CC(Nc1ccc2c(c1)OCCn1cc(N3C(=O)OCC3C(F)F)nc1-2)C(N)=O (configuration not stated) | 81% [middle of 8 runs] | 65.7% [middle of 8 runs] |  | 93% [middle of 8 runs] | 96.8% [middle of 8 runs] | 51.8% [middle of 8 runs] | 47.7% [middle of 8 runs] |  |  |
|  | CC(Nc1ncnc2nc[nH]c12)c1cc2cccc(Cl)c2c(=O)n1-c1ccccc1 (configuration not stated) | 96.2% [middle of 8 runs] | 95.5% [middle of 8 runs] | 64.3% [middle of 8 runs] |  |  | 97.4% [middle of 8 runs] |  | 78.1% [middle of 8 runs] | IC50 [1]: > 10 µM |
|  | CC1(C)CCC(CN2CCN(c3ccc(C(=O)NS(=O)(=O)c4ccc(NCC5CCOCC5)c([N+](=O)[O-])c4)c(Oc4cnc5[nH]ccc5c4)c3)CC2)=C(c2ccc(Cl)cc2)C1 | 97.7% [middle of 4 runs] | 99.2% [middle of 4 runs] |  |  |  | 100% [middle of 4 runs] | 96% [middle of 4 runs] |  |  |
| < 0.0316 µM | CC1(C)CCC(Nc2ncc(C(F)(F)F)c(-c3c[nH]c4c(P(C)(C)=O)c(C#N)ccc34)n2)CN1 (configuration not stated) | 30.1% [middle of 4 runs] | 29.5% [middle of 4 runs] | 7.06% [middle of 4 runs] |  |  | 35.8% [middle of 4 runs] | 33% [middle of 4 runs] | 32.1% [middle of 4 runs] |  |
| 5.49 µM [middle of 4 runs] | CCCS(=O)(=O)Nc1ccc(F)c(C(=O)c2c[nH]c3ncc(-c4ccc(Cl)cc4)cc23)c1F | 99% [middle of 4 runs] |  | 8.42% [middle of 4 runs] |  |  |  | 96.2% [middle of 4 runs] | 90% [middle of 4 runs] |  |
| > 1 µM | CCN1CCN(Cc2ccc(Nc3ncc(F)c(-c4cc(F)c5nc(C)n(C(C)C)c5c4)n3)nc2)CC1 | 94.5% [middle of 4 runs] | 95.2% [middle of 4 runs] |  | 99.2% [middle of 4 runs] | 91.3% [middle of 4 runs] | 91.5% [middle of 4 runs] |  |  |  |
|  | COc1c(OCCCN2CCOCC2)ccc2c3n(c(=NC(=O)c4cnc(N)nc4)nc12)CCN3 | 59.6% [middle of 8 runs] | 36.6% [middle of 8 runs] |  | 96.6% [middle of 8 runs] | 80.7% [middle of 8 runs] | 15.3% [middle of 7 runs] | 4.26% [middle of 8 runs] |  | IC50 [1]: 47.6 nM [middle of 8 runs] |
| > 10 µM | C[C@@H](NC(=O)c1ncnc(N)c1Cl)c1ncc(C(=O)Nc2cc(C(F)(F)F)c(Cl)cn2)s1 | 98.2% [middle of 4 runs] | 93% [middle of 4 runs] | 87.4% [middle of 4 runs] |  |  | 104% [middle of 4 runs] | 109% [middle of 4 runs] | 96.5% [middle of 4 runs] |  |
|  | Cc1nc(NC(=O)N2CCCC2C(N)=O)sc1-c1ccnc(C(C)(C)C(F)(F)F)c1 (configuration not stated) | 86.2% [middle of 8 runs] | 88.9% [middle of 8 runs] | 35% [middle of 8 runs] |  |  | 81% [middle of 8 runs] | 62.9% [middle of 8 runs] | 48% [middle of 8 runs] | IC50 (compound alone, run of 06/12/2023): 2.64 µM [middle of 8 runs] |
|  | Cn1cnc2c(F)c(Nc3ccc(Br)cc3Cl)c(C(=O)NOCCO)cc21 |  |  |  |  |  |  |  |  | viability, T/C (compound 0.00949 µM): 80.3% and 86.2% (2×) and 89.4%; viability, T/C (compound 0.03 µM): 93.8% [middle of 4 runs]; viability, T/C (compound 0.0949 µM): 81.6% [middle of 4 runs]; viability, T/C (compound 0.3 µM): 86.9% [middle of 4 runs]; viability, T/C (compound 0.949 µM): 72.7% [middle of 4 runs]; viability, T/C (compound 3 µM): 49.5% [middle of 4 runs] |
| > 10 µM | Cn1nccc1Nc1nccc(-c2ccn(C(CO)c3ccc(Cl)c(F)c3)c(=O)c2)n1 (configuration not stated) | 95.5% [middle of 4 runs] | 100% [middle of 4 runs] | 74.2% [middle of 4 runs] |  |  | 96.9% [middle of 4 runs] | 96.5% [middle of 4 runs] | 85.2% [middle of 4 runs] |  |
| > 0.1 µM | Cn1ncnc1[C@H]1c2n[nH]c(=O)c3cc(F)cc(c23)N[C@@H]1c1ccc(F)cc1 | 69.4% [middle of 4 runs] | 55.5% [middle of 4 runs] |  | 89.2% [middle of 4 runs] | 93.7% [middle of 4 runs] |  |  |  | viability, T/C (compound 0.000316 µM): 97% [middle of 4 runs]; viability, T/C (compound 0.001 µM): 95.9% [middle of 4 runs] |
